In patent US8367328B2, “Method for synthesizing DNA” (Takara Bio Inc., priority 1998, dated 2013):

Target: T1, Pfu DNA Polymerase II (Pyrococcus furiosus, UniProt P81409+P81412)
T1 construct: made in house; host or cells: Escherichia coli JM109/pFU1001 (FERM BP-5579)
T1 sequence (P81409 1-1263): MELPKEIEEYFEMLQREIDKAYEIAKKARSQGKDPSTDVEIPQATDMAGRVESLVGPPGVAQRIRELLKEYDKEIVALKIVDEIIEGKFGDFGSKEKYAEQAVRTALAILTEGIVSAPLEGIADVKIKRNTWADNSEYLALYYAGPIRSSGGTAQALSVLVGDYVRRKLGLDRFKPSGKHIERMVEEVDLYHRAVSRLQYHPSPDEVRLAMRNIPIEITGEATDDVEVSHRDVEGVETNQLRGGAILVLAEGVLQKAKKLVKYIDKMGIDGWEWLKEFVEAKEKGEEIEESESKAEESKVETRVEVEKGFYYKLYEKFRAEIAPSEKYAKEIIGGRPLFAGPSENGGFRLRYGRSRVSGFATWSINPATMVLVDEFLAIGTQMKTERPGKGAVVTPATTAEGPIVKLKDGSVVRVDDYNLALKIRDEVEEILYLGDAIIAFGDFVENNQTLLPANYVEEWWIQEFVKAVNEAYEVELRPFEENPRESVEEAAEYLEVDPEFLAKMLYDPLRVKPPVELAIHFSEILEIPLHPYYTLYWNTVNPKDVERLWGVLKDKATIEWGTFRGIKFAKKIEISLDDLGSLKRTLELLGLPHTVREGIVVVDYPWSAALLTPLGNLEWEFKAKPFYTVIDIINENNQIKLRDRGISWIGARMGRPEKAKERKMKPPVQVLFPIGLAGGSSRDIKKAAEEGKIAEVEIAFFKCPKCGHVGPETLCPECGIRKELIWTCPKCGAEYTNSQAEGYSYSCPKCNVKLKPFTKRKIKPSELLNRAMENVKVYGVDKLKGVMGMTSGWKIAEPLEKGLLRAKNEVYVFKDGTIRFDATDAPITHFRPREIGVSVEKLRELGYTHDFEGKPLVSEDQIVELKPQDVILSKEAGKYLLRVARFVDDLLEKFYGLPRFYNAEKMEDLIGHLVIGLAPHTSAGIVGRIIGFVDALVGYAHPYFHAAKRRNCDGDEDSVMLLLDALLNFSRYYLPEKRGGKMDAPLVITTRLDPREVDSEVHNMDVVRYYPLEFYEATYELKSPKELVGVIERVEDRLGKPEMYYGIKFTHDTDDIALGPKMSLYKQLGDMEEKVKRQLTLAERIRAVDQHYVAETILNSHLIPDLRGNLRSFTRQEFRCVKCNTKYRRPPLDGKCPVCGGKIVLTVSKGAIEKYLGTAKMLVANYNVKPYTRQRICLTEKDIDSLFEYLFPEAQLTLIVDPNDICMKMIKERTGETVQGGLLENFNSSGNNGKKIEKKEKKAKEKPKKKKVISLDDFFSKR
T1 sequence (P81412 1-613): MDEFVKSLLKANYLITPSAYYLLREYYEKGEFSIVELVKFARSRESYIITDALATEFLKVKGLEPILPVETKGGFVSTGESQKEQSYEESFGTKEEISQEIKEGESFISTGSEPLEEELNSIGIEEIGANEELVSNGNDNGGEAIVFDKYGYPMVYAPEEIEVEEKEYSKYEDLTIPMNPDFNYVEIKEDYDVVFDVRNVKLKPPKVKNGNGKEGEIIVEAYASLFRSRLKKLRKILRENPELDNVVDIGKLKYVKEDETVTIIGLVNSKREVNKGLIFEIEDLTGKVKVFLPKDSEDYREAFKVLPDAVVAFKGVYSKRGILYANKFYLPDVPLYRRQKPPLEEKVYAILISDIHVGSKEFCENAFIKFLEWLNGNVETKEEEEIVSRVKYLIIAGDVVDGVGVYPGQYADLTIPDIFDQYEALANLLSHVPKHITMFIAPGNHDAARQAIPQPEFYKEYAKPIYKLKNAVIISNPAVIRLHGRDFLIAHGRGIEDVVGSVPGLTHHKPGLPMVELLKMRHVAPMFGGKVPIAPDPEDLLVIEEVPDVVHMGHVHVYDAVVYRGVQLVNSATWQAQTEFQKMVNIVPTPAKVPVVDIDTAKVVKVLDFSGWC
Assay: PCR with Pfu DNA Polymerase II in the presence of acidic substances (λDNA template)
Type: biochemical
Experimental: A reaction mixture comprising λDNA as a template, primers λ1 and λ3 as a primer pair, and Pfu DNA Polymerase II as DNA polymerase was prepared, and PCR was carried out. The composition of the reaction mixture is as follows.
10 mM Tris-hydrochloric acid (pH 9.2), 75 mM potassium chloride, 6 mM magnesium chloride, 0.4 mM each of dATP, dCTP, dGTP and dTTP, 0.01% BSA, 1.25 U of Pfu DNA Polymerase II, 500 pg of λDNA, and 5 pmol each of primers λ1 and λ3 (a final volume being 25 μl). […]
Using the sulfated-fucose-containing Polysaccharide-F obtained in Example 6 described above, dextran sulfate powder (manufactured by Onco), or sodium alginate (100 to 150 centipoises, manufactured by Wako Pure Chemicals), the effects of these acidic substances on the activity of Pfu DNA Polymerase II were examined. A reaction mixture comprising λDNA as a template, primers λ1 and λ2 as a primer pair, and Pfu DNA Polymerase II as DNA polymerase was prepared, and PCR was carried out. The composition of the reaction mixture is as follows.
(§1) 10 mM Tris-hydrochloric acid, pH 9.2, 75 mM potassium chloride, 6 mM magnesium chloride, 0.4 mM each of dATP, dCTP, dGTP and dTTP, 0.01% BSA, 1.25 U of Pfu DNA Polymerase II, 100 pg of λDNA, and 5 pmol each of primers λ1 and λ2 (a final volume being 25 μl). Further, 10 ng of the sulfated-fucose-containing polysaccharide-F, 10 ng of dextran sulfate powder, or 1 μg of sodium alginate was respectively added to the above reaction mixture.
(§2) The reaction in 25 cycles was carried out for each of these reaction mixtures, wherein one cycle of reaction comprises a process consisting of 98° C., 5 seconds—66° C., 15 seconds. Thereafter, 5 μl of the resulting reaction mixture was subjected to electrophoresis on 1% agarose gel containing ethidium bromide in an amount of 0.00005%, whereby an amplified fragment was confirmed.
Further, studies were conducted on the effects of the sulfated-fucose-containing polysaccharide-F obtained in Example 6 described above, the sulfated-fucose-containing polysaccharide-U obtained in Example 7 described above, or sodium polyglutamate (manufactured by Sigma) as an acidic substance. A reaction mixture for PCR was prepared in the same manner as described above except for changing the amount of template λDNA to 500 pg and the primer pairs to primers λ1 and λ3. Five nanograms of the sulfated-fucose-containing polysaccharide-F, 5 ng, 10 ng, 20 ng or 30 ng each of the sulfated-fucose-containing polysaccharide-U, or 250 ng, 500 ng, 750 ng or 1000 ng each of sodium polyglutamate was respectively added to the above reaction mixture.
as §2, with “reaction” for “reaction in 25 cycles”, “in 30 cycles,” for “for each of these reaction mixtures,”, “After the termination of the reaction,” for “Thereafter,”
Using the sulfated-fucose-containing polysaccharide-F obtained in Example 6 described above, the effects on the activity of Pfu DNA Polymerase II were examined. A reaction mixture comprising λDNA as a template, primers λ1 and λ2 as a primer pair, and Pfu DNA Polymerase II as DNA polymerase was prepared, and PCR was carried out. The composition of the reaction mixture is as follows.
as §1, with “500” for “100”, “polysaccharide-F” for “polysaccharide-F, 10 ng of dextran sulfate powder, or 1 μg of sodium alginate”
The reaction in 30 cycles was carried out for each of these reaction mixtures, wherein one cycle of reaction comprises a process consisting of 98° C., 5 seconds—66° C., 15 seconds. […]

Substance	Amplification Results (1 kb fragment, 500 pg λDNA, primers λ1/λ3, 30 cycles 98°C 5 s–66°C 15 s, amount added 250 ng)	Amplification Results (1 kb fragment, 500 pg λDNA, primers λ1/λ3, 30 cycles 98°C 5 s–66°C 15 s, amount added 500 ng)	Amplification Results (1 kb fragment, 500 pg λDNA, primers λ1/λ3, 30 cycles 98°C 5 s–66°C 15 s, amount added 750 ng)	Amplification Results (1 kb fragment, 500 pg λDNA, primers λ1/λ3, 30 cycles 98°C 5 s–66°C 15 s, amount added 1000 ng)	Amplification Results (0.5 kb fragment, 100 pg λDNA, primers λ1/λ2, 25 cycles 98°C 5 s–66°C 15 s, amount added 10 ng)
sodium polyglutamate	+ (Amplification being observed)	+ (Amplification being observed)	++ (Intensive amplification being observed)	+ (Amplification being observed)	
dextran sulfate [Dextran Sulfate Powder]					+ (Amplification being observed)
